Earlier results in US7550155B2, “Aqueous pharmaceutical compositions of 2,6-diisopropylphenol (propofol) and their uses” (Transform Pharmaceuticals Inc., priority 2002, dated 2009).

Settings: 10% aqueous solution of P188

CC(C)c1cccc(C(C)C)c1O [propofol, 2,6-diisopropylphenol]
Propofol held in aqueous P188 solution: 0.8%
